Test results taken from patent US20210096127A1, “MEANS AND METHODS FOR MONITORING SCAR DEVELOPMENT” (HELMHOLTZ ZENTRUM MÜNCHEN - DEUTSCHES FORSCHUNGSZENTRUM FÜR …, priority 2018, published 2021).
Structures can show the parent of a compound that is named as a salt.

Key:
SCAD = assay: Chemical screening with the SCAD (Scar-in-a-Dish) assay; assay type: cell-based, mice; settings: 2.5 μM final concentration
From the text: Dorsal skins were collected from C57BL/6J or En1^Cre;R26^mTmG or En1^e;R26^VT2/GK3 mice at different ages as indicated, and washed twice with cold DMEM/F12 (Thermo Fisher Scientific 11320074) medium to remove contaminating blood, and washed once with Hank's Balanced Salt Solution (HBSS, Thermo Fisher Scientific 14175095). After careful removal of non-skin tissue at the ventral side with a surgical scalpel, round full-thickness skin pieces were created with disposable Ø 2 mm biopsy punch (Stiefel 270130), and cultured in 300 μl of DMEM/F12 medium containing 10% FBS, 1× GlutaMAX (Thermo Fisher Scientific 35050038), 1× Penicillin/streptomycin (Thermo Fisher Scientific 15140122), and 1× MEM non-essential amino acids (Thermo Fisher Scientific 11140035) in each well of 96-well plates in a humidified 37° C., 5% CO2 incubator. (Note: the 2 mm skin pieces were cultured in medium but not floating at the liquid air surface). Fresh medium was supplied every second day and the skin tissues were harvested at the indicated time points (day 1 to day 5 after culture), with the fresh tissues serving as day 0 control, and fixed in 2% PFA for overnight at 4° C.
D0 SCADs (see Example 2) were first treated with Nefopam from Prestwick chemical library (FDA approved library). The initial concentration of the chemical in library format is 1 mM, dissolved in DMSO. The final concentration of chemical used in FDA-library is 2.5 μM.
All chemicals in the library are the same (1 mM), and they are added by a robot, eg. 0.5 μl chemical per well of 200 μl culture to make 2.5 μM final concentration. SCAD biopsies were prepared in 96-well plate with 200 μl per well, the automated system was used to add the chemical Nefopam.
All the data were compiled on excel sheets and scores were added based on the visual variability observed when compared to the DMSO and media control D5 SCADs.
The chemical Nefopam was selected (see Example 7) and further analyzed on SCAD (see Example 2). The treatment was done in triplicates.

scar formation = settings: stated as known; inhibitor of scar development; cited from earlier work

For `CN1CCOC(c2ccccc2)c2ccccc2C1` (stereo not shown) [Prestw-229, Nefopam hydrochloride], the “collagen formation in SCAD sections” value (SCAD; D5 SCAD sections, compared to control SCAD) was “significantly less”, the “scar formation in the whole-mount image” value (SCAD; D5 SCAD, 96-well plate, triplicates, compared to control (media treated) SCAD) was “visually less scar formation” and the scar development (SCAD; D5 SCAD, FIG. 7) was “visible reduction of scar development”. For the same compound, the “scar formation (known effect, positive control)” value (scar formation) was “known to reduce scar formation”.
